Measurements published in article PMC6152672, “Cholinesterase Inhibitory Activities of Adamantyl-Based Derivatives and Their Molecular Docking Studies” (Molecules : A Journal of Synthetic Chemistry and Natural …, 2017).
Read-outs that look alike come from different tables or passages of the source.

Legend:
[1] = molecular target: T1, Electric eel acetylcholinesterase (AChE, EC 3.1.1.7) (Electrophorus electricus, UniProt O42275); assay: biochemical; assay type: biochemical; conditions: for AChE inhibition effect (in words): 2a, 2r: up to a concentration of 1000 µM
T1 construct: purchased Sigma-Aldrich (St. Louis, MO, USA)
Description: (§1) Electric eel acetylcholinesterase (AChE, EC 3.1.1.7), equine serum butyrylcholinesterase (BChE, EC 3.1.1.8), 5,5’-dithio-bis-2-nitrobenzoic acid (DTNB), and sodium phosphate dibasic (Na2HPO4) were purchased from Sigma-Aldrich (St. Louis, MO, USA). S-butyrylthiocholine chloride (BTCC) from Sigma-Aldrich (Buchs, Switzerland), acetylthiocholine iodide (ATCI) from Sigma-Aldrich (Dorset, UK) and sodium phosphate monobasic (NaH2PO4) from Sigma-Aldrich (Munich, Germany) were purchased. […] The reagents and solvents for the synthesis work were obtained commercially from Sigma-Aldrich Corporation (St. Louis, MO, USA) and used without any further purification.
(§2) AChE and BChE inhibitory activities of the compounds were determined by Ellman’s assay with minor modifications. […] After a pre-incubation of 15 min at room temperature, 10 µL of 0.50 mM DTNB was added into each well, followed by 10 µL of 0.71 mM acetylthiocholine iodide as the substrate. […] Each test was carried out in triplicate and the results were expressed as an average value. The percentage of inhibition was calculated using the following formula: (1) Percentage of inhibition=S blank -S sample/S blank × 100% where S blank is slope of the blank reaction (without compounds or a reference standard) and S sample is the slope of the sample reaction (with compounds or a reference drug).
(§3) The results of the cholinesterase inhibitory assay were expressed as means ± SD, and were labeled if p < 0.05 using ANOVA of IBM SPSS Statistics for Windows, Version 23.0 (IBM, New York, NY, USA).

[2] = molecular target: T2, equine serum butyrylcholinesterase (BChE, EC 3.1.1.8) (Equus caballus, UniProt P81908); assay: biochemical; assay type: biochemical; conditions: for BChE inhibition effect (in words): 2a, 2r: up to a concentration of 1000 µM
T2 construct: purchased Sigma-Aldrich (St. Louis, MO, USA); host or cells: equine serum
Description: as §1, §2, §3

[3] = Ellman's assay, pH 8, 15 min pre-incubation, acetylthiocholine iodide substrate, mean ± SD, triplicate, read-out: AChE IC50
[4] = Ellman's assay, pH 8, 15 min pre-incubation, butyrylthiocholine chloride substrate, mean ± SD, triplicate, read-out: BChE IC50

T2 sequence (P81908 whole entry): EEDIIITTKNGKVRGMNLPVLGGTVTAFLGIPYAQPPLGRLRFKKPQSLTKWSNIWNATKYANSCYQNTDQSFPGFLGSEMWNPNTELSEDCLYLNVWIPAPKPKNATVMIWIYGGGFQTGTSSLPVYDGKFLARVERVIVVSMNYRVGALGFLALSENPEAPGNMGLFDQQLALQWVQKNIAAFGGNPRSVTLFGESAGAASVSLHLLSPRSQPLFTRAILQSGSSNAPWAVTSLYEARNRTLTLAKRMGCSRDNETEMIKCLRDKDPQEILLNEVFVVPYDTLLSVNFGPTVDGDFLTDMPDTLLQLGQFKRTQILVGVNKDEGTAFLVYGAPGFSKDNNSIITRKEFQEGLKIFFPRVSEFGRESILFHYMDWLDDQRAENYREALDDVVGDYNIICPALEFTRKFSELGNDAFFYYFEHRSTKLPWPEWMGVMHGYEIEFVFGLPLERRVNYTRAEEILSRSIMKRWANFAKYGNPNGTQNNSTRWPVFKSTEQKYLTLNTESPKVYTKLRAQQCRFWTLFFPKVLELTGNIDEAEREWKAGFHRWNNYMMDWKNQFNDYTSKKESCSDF
T1 sequence (O42275 24-633): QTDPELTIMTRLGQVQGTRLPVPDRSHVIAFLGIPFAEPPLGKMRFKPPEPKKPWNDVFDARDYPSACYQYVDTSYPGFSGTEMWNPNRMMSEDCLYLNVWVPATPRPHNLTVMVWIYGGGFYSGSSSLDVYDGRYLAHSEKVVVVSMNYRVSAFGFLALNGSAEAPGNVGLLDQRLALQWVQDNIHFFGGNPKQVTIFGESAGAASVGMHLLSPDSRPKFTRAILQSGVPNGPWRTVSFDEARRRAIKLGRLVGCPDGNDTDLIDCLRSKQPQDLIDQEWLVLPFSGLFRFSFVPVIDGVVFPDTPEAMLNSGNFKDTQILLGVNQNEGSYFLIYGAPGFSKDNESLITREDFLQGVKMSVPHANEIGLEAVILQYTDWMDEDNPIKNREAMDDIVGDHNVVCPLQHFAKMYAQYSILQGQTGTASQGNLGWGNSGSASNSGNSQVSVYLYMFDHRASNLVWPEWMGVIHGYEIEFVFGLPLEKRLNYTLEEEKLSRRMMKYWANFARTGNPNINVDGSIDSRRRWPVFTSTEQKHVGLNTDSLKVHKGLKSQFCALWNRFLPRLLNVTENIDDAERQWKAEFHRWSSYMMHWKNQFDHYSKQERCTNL

Row | SMILES | AChE inhibition effect (in words) [1] | IC50 [1, 3] | BChE inhibition effect (in words) [2] | IC50 [2, 4] | IC50 [1] | IC50 [2]
1 | O=C(OCC(=O)C12CC3CC(CC(C3)C1)C2)c1ccccc1 [Compound 2a, 2-(Adamantan-1-yl)-2-oxoethyl benzoate] | low inhibition effects | 994 ± 19.4 µM | low inhibition effects | > 1500 µM |  | 
2 | O=C(OCC(=O)C12CC3CC(CC(C3)C1)C2)c1ccccc1Cl [Compound 2b, 2-(Adamantan-1-yl)-2-oxoethyl 2-chlorobenzoate] |  | 361 ± 30 µM |  | > 1500 µM |  | 
3 | O=C(OCC(=O)C12CC3CC(CC(C3)C1)C2)c1cccc(Cl)c1 [Compound 2c, 2-(Adamantan-1-yl)-2-oxoethyl 3-chlorobenzoate] |  | 280 ± 17.4 µM |  | 971 ± 62.5 µM |  | 
4 | O=C(OCC(=O)C12CC3CC(CC(C3)C1)C2)c1ccc(Cl)cc1 [Compound 2d, 2-(Adamantan-1-yl)-2-oxoethyl 4-chlorobenzoate] |  | 341 ± 34.7 µM |  | 1290 ± 30.1 µM |  | 
5 | O=C(OCC(=O)C12CC3CC(CC(C3)C1)C2)c1ccc(Cl)cc1Cl [Compound 2e, 2-(Adamantan-1-yl)-2-oxoethyl 2,4-dichlorobenzoate] |  | 77.1 ± 7.86 µM |  | 307 ± 25.1 µM |  | 
6 | Cc1ccccc1C(=O)OCC(=O)C12CC3CC(CC(C3)C1)C2 [Compound 2f, 2-(Adamantan-1-yl)-2-oxoethyl 2-methylbenzoate] |  | 175 ± 25.9 µM |  | > 1500 µM |  | 
7 | Cc1cccc(C(=O)OCC(=O)C23CC4CC(CC(C4)C2)C3)c1 [Compound 2g, 2-(Adamantan-1-yl)-2-oxoethyl 3-methylbenzoate] |  | 191 ± 14.4 µM |  | > 1500 µM |  | 
8 | Cc1ccc(C(=O)OCC(=O)C23CC4CC(CC(C4)C2)C3)cc1 [Compound 2h, 2-(Adamantan-1-yl)-2-oxoethyl 4-methylbenzoate] |  | > 1500 µM |  | > 1500 µM |  | 
9 | COc1ccccc1C(=O)OCC(=O)C12CC3CC(CC(C3)C1)C2 [Compound 2i, 2-(Adamantan-1-yl)-2-oxoethyl 2-methoxybenzoate] |  | > 1500 µM |  | > 1500 µM |  | 
10 | COc1cccc(C(=O)OCC(=O)C23CC4CC(CC(C4)C2)C3)c1 [Compound 2j, 2-(Adamantan-1-yl)-2-oxoethyl 3-methoxybenzoate] |  | 166 ± 19.6 µM |  | 223 ± 17.6 µM |  | 
11 | COc1ccc(C(=O)OCC(=O)C23CC4CC(CC(C4)C2)C3)cc1 [Compound 2k, 2-(Adamantan-1-yl)-2-oxoethyl 4-methoxybenzoate] |  | > 1500 µM |  | > 1500 µM |  | 
12 | O=C(OCC(=O)C12CC3CC(CC(C3)C1)C2)c1ccccc1[N+](=O)[O-] [Compound 2l, 2-(Adamantan-1-yl)-2-oxoethyl 2-nitrobenzoate] |  | 689 ± 44.5 µM |  | > 1500 µM |  | 
13 | O=C(OCC(=O)C12CC3CC(CC(C3)C1)C2)c1cccc([N+](=O)[O-])c1 [Compound 2m, 2-(Adamantan-1-yl)-2-oxoethyl 3-nitrobenzoate] |  | 233 ± 25.9 µM |  | > 1500 µM |  | 
14 | O=C(OCC(=O)C12CC3CC(CC(C3)C1)C2)c1ccc([N+](=O)[O-])cc1 [Compound 2n, 2-(Adamantan-1-yl)-2-oxoethyl 4-nitrobenzoate] |  | 349 ± 25.2 µM |  | 777 ± 33.6 µM |  | 
15 | Nc1ccccc1C(=O)OCC(=O)C12CC3CC(CC(C3)C1)C2 [Compound 2o, 2-(adamantan-1-yl)-2-oxoethyl 2-aminobenzoate] | inactive |  | inactive |  | > 1500 µM | > 1500 µM
16 | Nc1cccc(C(=O)OCC(=O)C23CC4CC(CC(C4)C2)C3)c1 [Compound 2p, 2-(adamantan-1-yl)-2-oxoethyl 3-aminobenzoate] | inactive | > 1500 µM | inactive | > 1500 µM |  | 
17 | Nc1ccc(C(=O)OCC(=O)C23CC4CC(CC(C4)C2)C3)cc1 [Compound 2q, 2-(adamantan-1-yl)-2-oxoethyl 4-aminobenzoate] | inactive | > 1500 µM | inactive | > 1500 µM |  | 
18 | O=C(OCC(=O)C12CC3CC(CC(C3)C1)C2)c1ccccn1 [Compound 2r, 2-(Adamantan-1-yl)-2-oxoethyl picolinate] | low inhibition effects | > 1500 µM | low inhibition effects | > 1500 µM |  | 
